Measured values: ChEMBL document CHEMBL4342403, “New evolutions in the BACE1 inhibitor field from 2014 to 2018” (Bioorg Med Chem Lett, 2019)

Experiments:
[1] = target: T1, Beta-secretase 1 (Homo sapiens, UniProt P56817); assay: Inhibition of C-terminal His6-tagged human BACE1 expressed in mammalian expression system preincubated for 1 hr followed by substrate addition and measured after 1 hr by FRET assay
[2] = target: T1, Beta-secretase 1; assay: Inhibition of BACE1 (unknown origin) assessed as reduction in amyloidbeta 40 level after 24 hrs by cell-based sandwich ELISA
[3] = target: T2, Beta-secretase 2 (Homo sapiens, UniProt Q9Y5Z0); assay: Inhibition of C-terminal His6-tagged human BACE2 expressed in mammalian expression system preincubated for 1 hr followed by substrate addition and measured after 1 hr by FRET assay
T2 sequence (Q9Y5Z0 whole entry): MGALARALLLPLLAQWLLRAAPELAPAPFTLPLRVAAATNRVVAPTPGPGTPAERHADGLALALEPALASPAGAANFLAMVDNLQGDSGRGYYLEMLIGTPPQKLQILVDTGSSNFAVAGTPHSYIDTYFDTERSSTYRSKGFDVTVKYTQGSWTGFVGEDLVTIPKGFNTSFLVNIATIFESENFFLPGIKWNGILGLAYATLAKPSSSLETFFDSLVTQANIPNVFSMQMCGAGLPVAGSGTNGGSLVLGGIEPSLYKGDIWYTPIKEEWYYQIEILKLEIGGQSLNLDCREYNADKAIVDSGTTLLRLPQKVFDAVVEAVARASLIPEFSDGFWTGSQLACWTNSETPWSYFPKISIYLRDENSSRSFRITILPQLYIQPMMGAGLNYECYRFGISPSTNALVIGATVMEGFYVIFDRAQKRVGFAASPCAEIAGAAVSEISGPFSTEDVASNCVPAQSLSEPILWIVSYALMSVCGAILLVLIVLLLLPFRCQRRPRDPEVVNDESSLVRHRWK

[4] = target: T1, Beta-secretase 1; assay: Inhibition of BACE1 in human SH-SY5Y cells expressing betaAPP assessed as reduction in amyloidbeta (1 to 40 residues) level incubated for 24 hrs by HTRF assay; assay type: cell-based
[5] = target: T1, Beta-secretase 1; assay: Inhibition of BACE1 (unknown origin)
[6] = target: T1, Beta-secretase 1; assay: Inhibition of BACE1 (unknown origin) by cell-based assay
[7] = target: Beta-secretase 1 (Rattus norvegicus, UniProt P56819); assay: Inhibition of BACE1 in Wistar rat neuronal cell suspension after 1 to 3 days by ELISA
[8] = target: T1, Beta-secretase 1; assay: Inhibition of BACE1 in HEK293 cells harboring APP assessed as reduction in amyloidbeta 40 level incubated for 18 to 20 hrs by AlphaLISA Assay; assay type: cell-based
[9] = target: T2, Beta-secretase 2; assay: Inhibition of BACE2 (unknown origin)
[10] = target: T1, Beta-secretase 1; assay: Inhibition of BACE1 in human SK-N-BE(2) cells expressing human APP695 assessed as reduction in amyloidbeta level incubated for 18 hrs by sandwich ELISA; assay type: cell-based
[11] = test system: Mus musculus; assay: In vivo inhibition of BACE1 in C57B1/6J mouse assessed as reduction in amyloidbeta 40 level in brain at 30 mg/kg, po measured at 4 hrs post dose by ELISA relative to control; assay type: functional
[12] = target: Cathepsin D (Homo sapiens, UniProt P07339); assay: Inhibition of recombinant Cathepsin D (unknown origin) expressed in CHO cells preincubated for 1 hr followed by substrate addition and measured after 1 hr by FRET assay; assay type: cell-based
[13] = target: T1, Beta-secretase 1; assay: Inhibition of human BACE1 catalytic domain preincubated for 30 mins followed by QSY7-EISEVNLDAEFC-Europium-amide substrate addition and measured after […] by HTRF assay
[14] = target: T2, Beta-secretase 2; assay: Inhibition of human BACE2 preincubated for 30 mins followed by QSY7- EISEVNLDAEFC-Eu-amide substrate addition and measured after […] by HTRF assay
[15] = target: P-glycoprotein (ABCB1) (Homo sapiens, UniProt P08183); assay: Substrate activity at p-glycoprotein (unknown origin) assessed as efflux ratio; conditions: not told
[16] = target: T1, Beta-secretase 1; assay: Inhibition of human BACE1 using Biotin-XSEVNLDAEFRHDSGC as substrate incubated for […] by fluorescence method
[17] = Dissociation constant, pKa of the compound; assay type: physicochemical
[18] = target: T1, Beta-secretase 1; assay: Inhibition of human BACE1 (1 to 460 residues) expressed in HEK293 cells after 16 to 24 hrs by FRET assay; assay type: cell-based
[19] = target: T1, Beta-secretase 1; assay: Inhibition of human BACE1 expressed in Escherichia coli preincubated for 1 hr followed by Mca-Ser-Glu-Val-Asn-Leu-Asp-Ala-Glu-Phe-Lys(Dnp)-OH substrate addition by spectroflurimetric assay
[20] = test system: Rattus norvegicus; assay: In vivo inhibition of BACE1 in Sprague Dawley rat assessed as reduction in amyloidbeta 40 level in brain at 30 mg/kg, po measured at 3 hrs post dose by ELISA relative to control; assay type: functional
[21] = test system: Rattus norvegicus; assay: In vivo inhibition of BACE1 in Sprague Dawley rat assessed as reduction in amyloidbeta 40 level in brain at 10 mg/kg, po measured at 3 hrs post dose by ELISA relative to control; assay type: functional
[22] = target: T1, Beta-secretase 1; assay: Inhibition of human BACE1 using Biotin-XSEVNLDAEFRHDSGC as substrate incubated for 2 hrs by fluorescence method
[23] = target: T2, Beta-secretase 2; assay: Inhibition of BACE2 (unknown origin) incubated for 450 mins using APP swedish mutant as substrate by FRET assay
[24] = target: T1, Beta-secretase 1; assay: Inhibition of BACE1 in human SK-N-BE(2) cells expressing human APP695 assessed as reduction in amyloidbeta (1 to 42 residues) level incubated for 18 hrs by sandwich ELISA; assay type: cell-based
[25] = target: T1, Beta-secretase 1; assay: Inhibition of BACE1 (unknown origin) incubated for 120 mins using APP swedish mutant as substrate by FRET assay

Sequence of Beta-secretase 1 (Rattus norvegicus, UniProt P56819) (P56819 whole entry): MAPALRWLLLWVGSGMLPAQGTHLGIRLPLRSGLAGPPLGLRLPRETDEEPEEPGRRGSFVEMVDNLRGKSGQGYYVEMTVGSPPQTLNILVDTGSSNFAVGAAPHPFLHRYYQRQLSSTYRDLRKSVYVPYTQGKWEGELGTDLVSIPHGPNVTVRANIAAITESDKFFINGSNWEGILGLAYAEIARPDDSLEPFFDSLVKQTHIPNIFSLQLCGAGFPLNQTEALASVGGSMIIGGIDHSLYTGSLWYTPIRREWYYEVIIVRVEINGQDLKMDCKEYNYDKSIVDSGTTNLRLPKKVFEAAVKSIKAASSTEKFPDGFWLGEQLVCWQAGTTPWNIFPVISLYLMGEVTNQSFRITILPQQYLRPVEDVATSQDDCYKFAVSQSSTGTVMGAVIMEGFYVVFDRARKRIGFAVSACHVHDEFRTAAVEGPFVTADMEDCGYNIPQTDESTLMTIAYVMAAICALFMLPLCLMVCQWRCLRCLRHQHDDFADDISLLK
T1 sequence (P56817 whole entry): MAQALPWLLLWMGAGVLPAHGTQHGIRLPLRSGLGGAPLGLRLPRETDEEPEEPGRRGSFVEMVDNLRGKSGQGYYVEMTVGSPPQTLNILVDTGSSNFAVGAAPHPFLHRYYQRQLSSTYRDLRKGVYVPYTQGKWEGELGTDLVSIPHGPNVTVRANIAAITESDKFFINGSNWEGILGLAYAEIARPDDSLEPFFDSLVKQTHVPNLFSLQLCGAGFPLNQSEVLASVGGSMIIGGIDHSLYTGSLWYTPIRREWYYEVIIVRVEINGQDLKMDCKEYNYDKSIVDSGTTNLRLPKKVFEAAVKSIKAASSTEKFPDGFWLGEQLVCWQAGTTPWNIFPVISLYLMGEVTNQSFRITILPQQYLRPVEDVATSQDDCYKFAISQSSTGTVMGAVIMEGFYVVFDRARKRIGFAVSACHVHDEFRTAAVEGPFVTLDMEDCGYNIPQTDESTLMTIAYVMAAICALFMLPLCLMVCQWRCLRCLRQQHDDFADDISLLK
Sequence of P-glycoprotein (ABCB1) (P08183 whole entry): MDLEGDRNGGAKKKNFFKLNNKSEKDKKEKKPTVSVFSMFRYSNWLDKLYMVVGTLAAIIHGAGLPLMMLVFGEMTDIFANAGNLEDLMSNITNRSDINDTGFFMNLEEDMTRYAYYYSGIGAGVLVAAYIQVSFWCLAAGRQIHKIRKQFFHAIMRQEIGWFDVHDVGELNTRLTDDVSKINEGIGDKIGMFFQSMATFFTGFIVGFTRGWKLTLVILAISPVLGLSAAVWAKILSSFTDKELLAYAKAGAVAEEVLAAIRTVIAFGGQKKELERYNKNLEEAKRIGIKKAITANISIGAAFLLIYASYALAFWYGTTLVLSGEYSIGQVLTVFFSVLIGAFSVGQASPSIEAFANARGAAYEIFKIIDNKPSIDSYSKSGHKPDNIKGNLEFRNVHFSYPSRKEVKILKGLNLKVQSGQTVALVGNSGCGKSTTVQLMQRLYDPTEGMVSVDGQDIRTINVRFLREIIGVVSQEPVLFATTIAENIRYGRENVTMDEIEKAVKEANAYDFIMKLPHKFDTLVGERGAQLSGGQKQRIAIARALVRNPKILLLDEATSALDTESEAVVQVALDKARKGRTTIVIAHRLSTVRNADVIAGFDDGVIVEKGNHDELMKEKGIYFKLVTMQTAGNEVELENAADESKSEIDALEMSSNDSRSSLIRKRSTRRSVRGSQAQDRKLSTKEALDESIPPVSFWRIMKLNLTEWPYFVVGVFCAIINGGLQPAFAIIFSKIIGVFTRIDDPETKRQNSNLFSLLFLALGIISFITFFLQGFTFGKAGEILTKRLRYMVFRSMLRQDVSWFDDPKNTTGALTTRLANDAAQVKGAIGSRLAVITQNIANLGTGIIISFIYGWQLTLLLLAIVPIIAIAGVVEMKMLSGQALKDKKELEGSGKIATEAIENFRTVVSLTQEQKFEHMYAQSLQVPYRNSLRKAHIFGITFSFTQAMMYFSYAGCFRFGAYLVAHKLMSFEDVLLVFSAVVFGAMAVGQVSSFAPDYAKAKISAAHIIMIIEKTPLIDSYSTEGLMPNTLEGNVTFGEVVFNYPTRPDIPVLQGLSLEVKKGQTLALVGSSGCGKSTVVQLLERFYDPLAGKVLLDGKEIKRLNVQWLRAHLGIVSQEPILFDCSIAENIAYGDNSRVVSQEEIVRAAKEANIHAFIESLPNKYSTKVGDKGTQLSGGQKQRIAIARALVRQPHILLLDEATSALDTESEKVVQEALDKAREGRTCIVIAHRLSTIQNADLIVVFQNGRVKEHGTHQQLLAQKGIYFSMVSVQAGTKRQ
Sequence of Cathepsin D (P07339 65-162 limits assumed): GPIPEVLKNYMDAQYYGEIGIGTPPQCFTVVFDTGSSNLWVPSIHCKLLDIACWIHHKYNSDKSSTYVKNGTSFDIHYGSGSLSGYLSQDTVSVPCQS
Sequence of Cathepsin D (P07339 169-412 limits assumed): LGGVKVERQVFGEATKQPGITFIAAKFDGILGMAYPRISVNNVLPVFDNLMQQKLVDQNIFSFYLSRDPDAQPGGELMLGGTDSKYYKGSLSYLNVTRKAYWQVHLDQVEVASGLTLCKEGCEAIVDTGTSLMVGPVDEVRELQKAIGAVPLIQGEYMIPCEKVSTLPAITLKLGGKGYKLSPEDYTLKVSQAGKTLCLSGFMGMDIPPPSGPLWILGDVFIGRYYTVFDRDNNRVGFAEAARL

NC1=N[C@](CF)(c2cc(NC(=O)c3cnc(Cl)cn3)ccc2F)[C@@H]2C[C@]2(C(F)F)S1
IC50 [1]: 1.6 nM
IC50 [2]: 3.7 nM
IC50 [3]: 13.2 nM

COC[C@H]1SC(N)=N[C@](C)(c2cc(NC(=O)c3ccc(C#N)cn3)ccc2F)[C@H]1F
IC50 [4]: 1 nM

Cn1cc2n(c1=O)C[C@@](C)(c1cc(NC(=O)c3ccc(C#N)cn3)ccc1F)N=C2N
IC50 [5]: 3.9 nM
IC50 [6]: 13.2 nM

NC1=N[C@@]2(c3cccc(NC(=O)c4cnc(C(F)F)cn4)c3)CCO[C@H]2CS1
IC50 [7]: 8 nM

COc1cnc(C(=O)Nc2ccc(F)c([C@]34CO[C@H](C(F)F)[C@H]3CSC(N)=N4)c2)cn1
IC50 [7]: 4 nM

C[C@@]1(c2nc(NC(=O)c3ccc(C#N)cn3)ccc2F)CS2(=O)=NCCCCN2C(N)=N1 (stereo partly drawn)
IC50 [8]: 49 nM

C[C@]1(c2cc(NC(=O)c3ccc(C#N)cn3)ccc2F)N=C(N)OCC12CC(F)(F)C2
IC50 [4]: 0.615 nM

C[C@@]1(c2cc(NC(=O)c3ccc(C#N)cc3)ccc2F)Cn2cnc(C(F)F)c2C(N)=N1
IC50 [9]: 15.8 nM
IC50 [5]: 3.5 nM
IC50 [6]: 0.95 nM

COc1ncc(C(=O)NC2CC2)c2c1C[C@]1(c3ccc(F)cc3F)N=C(N)SC[C@@H]1C2
IC50 [10]: 9.6 nM

Cc1cc(C#N)cnc1C(=O)Nc1ccc(F)c([C@]2(C)CS3(=O)=NCCCCC3(C)C(N)=N2)c1 (stereo partly drawn)
inhibition in vivo at 30 mg/kg [11]: 52%
IC50 [8]: 0.2 nM

Cc1cc(Cl)cnc1C(=O)Nc1ccc2c(c1)[C@@]1(C)N=C(N)C(C)(C)S(=O)(=O)[C@@H]1CCO2
IC50 [2]: 6 nM
IC50 [12]: > 100000 nM

CN=[S@@]1(=O)C[C@@](C)(c2cc(NC(=O)c3ccc(Cl)cn3)ccc2F)N=C(N)C1(C)C
Ki [13]: 3 nM
Ki [14]: 1 nM

CN1C[C@@H](c2cc(NC(=O)c3ccc(C#N)cn3)ccc2F)N=C(N)C(C)(C)S1(=O)=O
Ki [13]: 22 nM
Ki [14]: 32 nM

C[C@@]1(c2cc(NC(=O)c3cnc(OCF)cn3)ccc2F)C[C@@H](C(F)F)SC(N)=N1
IC50 [9]: 0.19 nM
efflux ratio [15]: 1.1
IC50 [5]: 6.23 nM

C#C[C@]1(c2cc(NC(=O)c3ccc(C#N)cn3)ccc2F)N=C(N)O[C@@H]2C[C@@H]21
IC50 [16]: 22.8 nM

CN=S1(=O)C[C@@](C)(c2cc(NC(=O)c3ccc(Cl)cn3)ccc2F)N=C(N)N1C (single isomer, unassigned)
Ki [13]: 5 nM
Ki [14]: 1 nM

CN1C(=N)N[C@]2(C)c3cc(NC(=O)c4ccc(C#N)cn4)ccc3OCC[C@@H]2S1(=O)=O (relative stereo)
Ki [13]: 47 nM
Ki [14]: 303 nM

Cc1cc(C#N)cnc1C(=O)Nc1ccc(F)c([C@@]2(C)N=C(N)C(C)(C)[S@@]3(=O)=NCC[C@@H]23)c1
inhibition in vivo at 30 mg/kg [11]: 86%

C[C@]1(c2cc(NC(=O)c3ccc(C#N)cn3)ccc2F)N=C(N)OC2(COC2)[C@H]1F
IC50 [16]: 20.7 nM

C[C@]1(c2cc(NC(=O)c3ccc(C#N)cn3)ccc2F)N=C(N)O[C@H]2[C@@H]1OCC2(F)F
IC50 [4]: 0.391 nM

COc1ncc(CC2CCOCC2)c2c1C[C@]1(c3ccc(F)cc3F)N=C(N)SC[C@@H]1C2
IC50 [10]: 0.76 nM

NC1=N[C@@]2(c3cc(CNCC(F)(F)F)c(F)cc3F)CO[C@@H](CF)C[C@H]2CS1
pKa [17]: 7.9

C[C@@]1(c2cc(NC(=O)c3ccc(OCF)cn3)ccc2F)C[C@@H](C(F)(F)F)SC(N)=N1
IC50 [9]: 1 nM
efflux ratio [15]: 0.7
IC50 [5]: 5.67 nM

COc1cnc(C(=O)Nc2ccnc([C@]34CN(c5ncc(F)cn5)C[C@H]3CSC(N)=N4)c2)cn1
IC50 [18]: 0.9 nM

CN1CC2(C1)C(=N)N[C@](C)(c1cc(NC(=O)c3ccc(Cl)cn3)ccc1F)CS2(=O)=O
Ki [13]: 6.1 nM
Ki [14]: 1.2 nM

CN1C(N)=N[C@](C)(c2cc(NC(=S)c3ccc(C#N)cn3)ccc2F)CS1(=O)=O
Ki [13]: 9.1 nM
Ki [14]: 1 nM

CN=S1(=O)C[C@@](C)(c2cc(-c3cc(-c4ncc(OC)cn4)no3)ccc2F)N=C(N)N1C (single isomer, unassigned)
IC50 [8]: 22 nM

NC1=N[C@@]2(COc3ccc(NC(=O)c4cnc(OCC(F)(F)F)cn4)cc32)[C@H](C(F)(F)F)C1
IC50 [19]: 7080 nM

C[C@]1(c2cc(NC(=O)c3ccc(C#N)cn3)ccc2F)N=C(N)C[C@H]1C(F)(F)F
pKa [17]: 9
IC50 [19]: 182 nM

COc1ccc(C(=O)Nc2ccc(F)c([C@]34COC[C@@]3(F)C[C@](C)(F)C(N)=N4)c2)nc1
inhibition in vivo at 30 mg/kg [20]: 64%
inhibition in vivo at 10 mg/kg [21]: 48%

CN1C(=N)N[C@]2(C)c3cc(NC(=O)c4ccc(C#N)cn4)ccc3OCC[C@H]2S1(=O)=O (relative stereo)
Ki [13]: 1 nM
Ki [14]: 14 nM

C[C@@]1(c2cc(-c3cc(-c4cnc(C#N)cn4)no3)ccc2F)C[C@@H](C(F)(F)F)OC(N)=N1
IC50 [8]: 30 nM

C[C@@]1(c2cc(NC(=O)c3ccc(C#N)cn3)ccc2F)CCC(N)=N1
pKa [17]: 11.1
IC50 [19]: 1050 nM

COc1nc(N2C[C@H]3CSC(N)=N[C@@]3(c3ccns3)C2)nc(C)c1F
IC50 [18]: 172 nM

COc1cnc(C(=O)Nc2ccc(F)c([C@]34CO[C@H](C(F)(F)F)[C@H]3CSC(N)=N4)c2)cn1
IC50 [7]: 8 nM

CC#CCOc1cnc(C2=Nc3cc([C@]4(C)C[C@@H](C(F)(F)F)OC(N)=N4)c(F)cc3CN2)cn1
IC50 [8]: 9 nM

NC1=N[C@](CF)(c2cc(NC(=O)c3cnc(Cl)cn3)cc(F)c2F)[C@H]2[C@@H](S1)C2(F)F
IC50 [1]: 15.2 nM
IC50 [2]: 11.2 nM
IC50 [3]: 3.02 nM

C#CCOc1cnc(C(=O)Nc2cc(F)c(F)c([C@@]3(CF)N=C(N)S[C@H]4C[C@H]43)c2)cn1
IC50 [2]: 0.64 nM

C[C@@]1(c2nc(NC(=O)c3ccc(C#N)cn3)ccc2F)C[C@@H](C(F)(F)F)OC(N)=N1
IC50 [8]: 3.4 nM

CC1(c2cc(NC(=O)c3ccc(C#N)cn3)ccc2F)Cc2ncc(F)cc2C(N)=N1 (stereo not drawn)
IC50 [4]: 2 nM

C[C@H]1SC(N)=N[C@](C)(c2cc(NC(=O)c3ccc(OC(F)F)cn3)ccc2F)[C@H]1F
IC50 [4]: 1.2 nM
IC50 [22]: 4.77 nM

COc1ccc(C(=O)Nc2ccc(F)c([C@]3(C)CC[C@@](C)(C#N)C(N)=N3)c2)nc1
IC50 [23]: 66 nM
IC50 [24]: 6.9 nM
IC50 [25]: 9.8 nM

C[C@H]1SC(N)=N[C@](C)(c2cc(NC(=O)c3cnc(F)cn3)ccc2F)C12CC(F)(F)C2
IC50 [4]: 5.4 nM
IC50 [22]: 11.9 nM

Cc1cc(C#N)cnc1C(=O)Nc1ccc(F)c([C@]2(C)CS(=O)(=NCC(F)(F)F)N(C)C(N)=N2)c1 (single isomer, unassigned)
IC50 [8]: 0.99 nM

CC(F)(F)[C@@H]1C[C@@](C)(c2cc(NC(=O)c3ccc(OCF)cn3)ccc2F)N=C(N)S1
IC50 [9]: 0.5 nM
efflux ratio [15]: 1.6
IC50 [5]: 6.13 nM

Cc1cc(C#N)cnc1C(=O)Nc1ccc(F)c([C@]2(C)CS3(=O)=NCCCCN3C(N)=N2)c1 (stereo partly drawn)
IC50 [8]: 2 nM

N#Cc1ccc(C(=O)Nc2ccc(F)c([C@]34COC[C@H]3n3cccc3C(N)=N4)c2)nc1
IC50 [9]: 120 nM
IC50 [5]: 26.3 nM
IC50 [6]: 15.5 nM
